By pEC50 is commonly meant −log10 of the EC50, conventionally taken in molar units.

pEC50: −log10 of the molar value.

Experimental findings from US20220056019A1, “FARNESOID X RECEPTOR AGONISTS AND USES THEREOF” (Metacrine, Inc., priority 2018, published 2022) are described below.

The target in the assay is T1, hFXR (Homo sapiens, UniProt Q96RI1).
T1 construct: expressed in transfected cells; host or cells: CV-1 cells
T1 sequence (Q96RI1 1-486): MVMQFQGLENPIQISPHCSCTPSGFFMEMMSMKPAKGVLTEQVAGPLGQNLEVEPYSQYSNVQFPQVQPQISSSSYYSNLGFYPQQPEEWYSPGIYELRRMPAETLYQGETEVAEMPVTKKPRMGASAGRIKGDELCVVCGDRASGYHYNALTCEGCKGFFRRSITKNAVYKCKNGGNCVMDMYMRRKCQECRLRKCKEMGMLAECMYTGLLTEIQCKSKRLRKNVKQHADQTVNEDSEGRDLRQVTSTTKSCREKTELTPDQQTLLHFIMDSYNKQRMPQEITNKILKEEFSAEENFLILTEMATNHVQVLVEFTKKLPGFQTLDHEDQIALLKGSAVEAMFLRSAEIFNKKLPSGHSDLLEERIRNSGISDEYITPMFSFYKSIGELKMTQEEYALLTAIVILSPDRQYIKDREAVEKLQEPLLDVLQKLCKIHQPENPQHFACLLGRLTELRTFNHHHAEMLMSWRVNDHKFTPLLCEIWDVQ
T1 sequence (P19793 1-462 partner): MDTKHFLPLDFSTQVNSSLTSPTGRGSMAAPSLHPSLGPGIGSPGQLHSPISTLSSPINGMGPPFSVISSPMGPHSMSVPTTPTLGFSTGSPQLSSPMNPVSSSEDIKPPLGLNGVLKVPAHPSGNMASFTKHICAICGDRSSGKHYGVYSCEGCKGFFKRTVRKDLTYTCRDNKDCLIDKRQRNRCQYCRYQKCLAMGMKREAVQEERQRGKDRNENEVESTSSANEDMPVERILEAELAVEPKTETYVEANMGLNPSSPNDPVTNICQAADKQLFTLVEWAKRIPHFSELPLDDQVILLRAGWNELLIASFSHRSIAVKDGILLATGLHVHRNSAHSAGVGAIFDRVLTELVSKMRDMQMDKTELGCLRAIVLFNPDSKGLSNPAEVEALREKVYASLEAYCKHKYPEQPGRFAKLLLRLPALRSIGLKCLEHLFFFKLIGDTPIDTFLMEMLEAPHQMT
Kind of assay: In Vitro FXR Assay (TK): TK-ECRE-luc reporter in transfected CV-1 cells. The assay is classed as cell-based. Particulars: 18 hrs incubation, luminescence. The essentials:
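CV-1 cells transiently cotransfected with hFXR, hRXR, TK-ECRE-luc reporter and pCMX-YFP plasmids in charcoal-stripped serum medium. Serially diluted compounds added for 18 h at 37° C., then cells lysed and luciferase luminescence measured.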
For the compound `COc1ccc(C23CCC(CN(c4cc(-c5coc(C6CC6)n5)ccn4)C(=O)[C@H]4CC[C@H](NC(=O)CO)CC4)(CC2)CC3)cc1C` [Compound 9.11, (trans)-N-(4-(2-Cyclopropyloxazol-4-yl)pyridin-2-yl)-4-(2-hydroxyacetamido)-N-((4-(4-methoxy-3-methylphenyl)bicyclo[2.2.2]octan-1-yl)methyl)cyclohexanecarboxamide], the pEC50 is not below 7.30. `CCC(=O)N[C@H]1CC[C@H](C(=O)N(C[C@H]2CC[C@H](c3ccc(OC)c(C)c3)CC2)c2cccc(-c3cnn(C(C)C)c3)c2)CC1` [Compound 10, trans-N-(3-(1-Isopropyl-1H-pyrazol-4-yl)phenyl)-N-((trans-4-(4-methoxy-3-methylphenyl)cyclohexyl)methyl)-4-propionamidocyclohexanecarboxamide] had a pEC50 not below 7.30.

Take `COc1ccc([C@H]2CC[C@H](CN(c3cccc(-c4cnn(C(C)C)c4)c3)C(=O)[C@H]3CC[C@H](NC(=O)C4CCCCC4)CC3)CC2)cc1C` [Compound 10.01, trans-4-(Cyclohexanecarboxamido)-N-(3-(1-isopropyl-1H-pyrazol-4-yl)phenyl)-N-((trans-4-(4-methoxy-3-methylphenyl)cyclohexyl)methyl) cyclohexanecarboxamide]: the negative logarithm of the EC50 (pEC50) is 6.00 to 7.30. The figure for `COc1ccc([C@H]2CC[C@H](CN(c3cccc(-c4cnn(C(C)C)c4)c3)C(=O)[C@H]3CC[C@H](NC(=O)C4CCOCC4)CC3)CC2)cc1C` [Compound 10.02, N-(trans-4-((3-(1-Isopropyl-1H-pyrazol-4-yl)phenyl)((trans-4-(4-methoxy-3-methylphenyl)cyclohexyl)methyl)carbamoyl)cyclohexyl)tetrahydro-2H-pyran-4-carboxamide] is not below 7.30; for `COc1ccc([C@H]2CC[C@H](CN(c3cccc(-c4cnn(C(C)C)c4)c3)C(=O)[C@H]3CC[C@H](NC(=O)CC4CCOCC4)CC3)CC2)cc1C` [Compound 10.03, trans-N-(3-(1-Isopropyl-1H-pyrazol-4-yl)phenyl)-N-((trans-4-(4-methoxy-3-methylphenyl)cyclohexyl)methyl)-4-(2-(tetrahydro-2H-pyran-4-yl)acetamido)cyclohexanecarboxa-mide] it is 6.00 to 7.30; for `COC(=O)CCC(=O)N[C@H]1CC[C@H](C(=O)N(C[C@H]2CC[C@H](c3ccc(OC)c(C)c3)CC2)c2cccc(-c3cnn(C(C)C)c3)c2)CC1` [Compound 10.04, Methyl 4-((trans-4-((3-(1-isopropyl-1H-pyrazol-4-yl)phenyl)((trans-4-(4-methoxy-3-methylphenyl)cyclohexyl)methyl)carbamoyl)cyclohexyl)amino)-4-oxobutanoate] it is 6.00 to 7.30.

Take `COc1ccc(C23CCC(CN(c4cc(-c5cnn(C(C)C)c5)ccn4)C(=O)[C@H]4CC[C@H](NC(C)=O)CC4)(CC2)CC3)cc1C` [Compound 10.05, trans-4-Acetamido-N-(4-(1-isopropyl-1H-pyrazol-4-yl)pyridin-2-yl)-N-((4-(4-methoxy-3-methylphenyl)bicyclo[2.2.2]octan-1-yl)methyl)cyclohexane-carboxamide]: the pEC50 was not below 7.30. The compound `COc1ccc([C@H]2CC[C@H](CN(c3cccc(-c4cnn(C(C)C)c4)c3)C(=O)[C@H]3CC[C@H](NC(=O)C(C)C)CC3)CC2)cc1C` [Compound 10.06, trans-4-Isobutyramido-N-(3-(1-isopropyl-1H-pyrazol-4-yl)phenyl)-N-((trans-4-(4-methoxy-3-methylphenyl)cyclohexyl)methyl) cyclohexanecarboxamide] had a pEC50 not below 7.30. In the case of `COc1ccc([C@H]2CC[C@H](CN(c3cccc(-c4cnn(C(C)C)c4)c3)C(=O)[C@H]3CC[C@H](CN)CC3)CC2)cc1C` [Compound 11, (trans)-4-(Aminomethyl)-N-(3-(1-isopropyl-1H-pyrazol-4-yl)phenyl)-N-(((trans)-4-(4-methoxy-3-methylphenyl)cyclohexyl)methyl)cyclohexanecarboxamide], the pEC50 was 5.00 to 6.00. `CCS(=O)(=O)NC[C@H]1CC[C@H](C(=O)N(C[C@H]2CC[C@H](c3ccc(OC)c(C)c3)CC2)c2cccc(-c3cnn(C(C)C)c3)c2)CC1` [Compound 12, (trans)-4-(Ethylsulfonamidomethyl)-N-(3-(1-isopropyl-1H-pyrazol-4-yl)phenyl)-N-(((trans)-4-(4-methoxy-3-methylphenyl)cyclohexyl)methyl)cyclohexanecarboxamide] gave a pEC50 not below 7.30. `CCC(=O)NC[C@H]1CC[C@H](C(=O)N(C[C@H]2CC[C@H](c3ccc(OC)c(C)c3)CC2)c2cccc(-c3cnn(C(C)C)c3)c2)CC1` [Compound 12.01, (trans)-N-(3-(1-Isopropyl-1H-pyrazol-4-yl)phenyl)-N-(((trans)-4-(4-methoxy-3-methylphenyl)cyclohexyl)methyl)-4-(propionamidomethyl)cyclohexane-carboxamide] gave a pEC50 of 6.00 to 7.30. The figure for `COc1ccc([C@H]2CC[C@H](CN(c3cccc(-c4cnn(C(C)C)c4)c3)C(=O)[C@H]3CC[C@H](CNC(=O)C(C)C)CC3)CC2)cc1C` [Compound 12.02, (trans)-4-(Isobutyramidomethyl)-i-(3-(1-isopropyl-1H-pyrazol-4-yl)phenyl)-N-(((trans)-4-(4-methoxy-3-methylphenyl)cyclohexyl)methyl) cyclohexanecarboxamide] is 6.00 to 7.30; for `CCOC(=O)NC[C@H]1CC[C@H](C(=O)N(C[C@H]2CC[C@H](c3ccc(OC)c(C)c3)CC2)c2cccc(-c3cnn(C(C)C)c3)c2)CC1` [Compound 12.03, Ethyl (((trans)-4-((3-(1-isopropyl-1H-pyrazol-4-yl)phenyl)(((trans)-4-(4-methoxy-3-methylphenyl)cyclohexyl)methyl)carbamoyl)cyclohexyl)methyl)car-bamate] it is 6.00 to 7.30.

Consider `COc1ccc([C@H]2CC[C@H](CN(c3cccc(-c4cnn(C(C)C)c4)c3)C(=O)[C@H]3CC[C@H](CNS(=O)(=O)C(C)C)CC3)CC2)cc1C` [Compound 12.04, (trans)-N-(3-(1-Isopropyl-1H-pyrazol-4-yl)phenyl)-N-(((trans)-4-(4-methoxy-3-methylphenyl)cyclohexyl)methyl)-4-((1-methylethylsulfonamido)methyl)cy-clohexanecarboxamide], for which the pEC50 is 6.00 to 7.30. Next, `COc1ccc([C@H]2CC[C@H](CN(c3cccc(-c4cnn(C(C)C)c4)c3)C(=O)[C@H]3CC[C@H](CNC(=O)OC(C)C)CC3)CC2)cc1C` [Compound 12.05, Isopropyl (((trans)-4-((3-(1-isopropyl-1H-pyrazol-4-yl)phenyl)(((trans)-4-(4-methoxy-3-methylphenyl)cyclohexyl)methyl)carbamoyl)cyclohexyl)methyl)car-bamate]: 6.00 to 7.30; `COc1ccc([C@H]2CC[C@H](CN(c3cccc(-c4cnn(C(C)C)c4)c3)C(=O)[C@H]3CC[C@H](CNC(=O)OCCO)CC3)CC2)cc1C` [Compound 12.06, 2-Hydroxyethyl (((trans)-4-((3-(1-isopropyl-1H-pyrazol-4-yl)phenyl)(((trans)-4-(4-methoxy-3-methylphenyl)cyclohexyl)methyl)carbamoyl)cyclohexyl)methyl)car-bamate]: not below 7.30; `COc1ccc([C@H]2CC[C@H](CN(c3cccc(-c4cnn(C(C)C)c4)c3)C(=O)[C@H]3CC[C@H](NC(=O)COCCCO)CC3)CC2)cc1C` [Compound 13, trans-4-(2-(3-Hydroxypropoxy)acetamido)-N-(3-(1-isopropyl-1H-pyrazol-4-yl)phenyl)-N-((trans-4-(4-methoxy-3-methylphenyl)cyclohexyl)methyl)cyclohexanecarboxamide]: not below 7.30. For the compound `COc1ccc([C@H]2CC[C@H](CN(c3cccc(-c4cnn(C(C)C)c4)c3)C(=O)[C@H]3CC[C@H](NC(=O)COCCO)CC3)CC2)cc1C` [Compound 13.01, trans-4-(2-(2-Hydroxyethoxy)acetamido)-N-(3-(1-isopropyl-1H-pyrazol-4-yl)phenyl)-N-((trans-4-(4-methoxy-3-methylphenyl)cyclohexyl)meth-yl)cyclohexanecarboxamide], the pEC50 was 6.00 to 7.30.

The compound `COc1ccc(C23CCC(CN(c4cc(-c5cnn(C(C)C)c5)ccn4)C(=O)[C@H]4CC[C@H](NC(=O)COCCCO)CC4)(CC2)CC3)cc1C` [Compound 13.02, trans-4-(2-(3 Hydroxypropoxy)acetamido)-N-(4-(1-isopropyl-1H-pyrazol-4-yl)pyridin-2-yl)-N-((4-(4-methoxy-3-methylphenyl)bicyclo[2.2.2]octan-1-yl)methyl)cyclohexanecarboxamide] gave a pEC50 not below 7.30.
